Drawing on ChEMBL document CHEMBL4316600, “Electrostatic Complementarity as a Fast and Effective Tool to Optimize Binding and Selectivity of Protein-Ligand Complexes” (J Med Chem, 2019), this text covers IC50 for four compounds.

Usually IC50 stands for the concentration needed to halve the response being measured. Lower therefore signals inhibition by little substance.

Sequence of Dual specificity mitogen-activated protein kinase kinase 1 (Q02750 whole entry): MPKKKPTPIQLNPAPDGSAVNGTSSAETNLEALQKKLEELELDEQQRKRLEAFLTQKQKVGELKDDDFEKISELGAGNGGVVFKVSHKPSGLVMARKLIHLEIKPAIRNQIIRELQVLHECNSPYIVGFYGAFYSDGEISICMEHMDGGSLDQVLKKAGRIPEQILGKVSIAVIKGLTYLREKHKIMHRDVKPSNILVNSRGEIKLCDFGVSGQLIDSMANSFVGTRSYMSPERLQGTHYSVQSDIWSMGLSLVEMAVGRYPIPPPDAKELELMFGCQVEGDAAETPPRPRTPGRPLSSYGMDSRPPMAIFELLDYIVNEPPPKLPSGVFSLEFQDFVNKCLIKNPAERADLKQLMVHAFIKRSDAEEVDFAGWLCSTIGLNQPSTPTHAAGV

The assay has as its target Dual specificity mitogen-activated protein kinase kinase 1 (Homo sapiens, UniProt Q02750). Description: Inhibition of MEK1 (unknown origin).
With `O=C(NOCCCO)c1ccc(F)c(F)c1Nc1ccc(Cl)cc1F`, the IC50 was determined as 0.026 µM.

`O=C(NOCCCO)c1ccc(F)c(F)c1Nc1ccc(F)cc1F` showed an IC50 of 0.12 µM.

On to `O=C(NOCCCO)c1ccc(F)c(F)c1Nc1ccc(Br)cc1F`, for which the half-maximal inhibitory concentration (IC50) turned out to be 0.0077 µM.

`O=C(NOCCCO)c1ccc(F)c(F)c1Nc1ccc(I)cc1F` yielded an IC50 of 0.002 µM.
